Experimental data: patent US20250034170A1, “SMALL MOLECULE MODULATORS OF GLUCOCEREBROSIDASE ACTIVITY AND USES THEREOF” (Vanqua Bio, Inc., priority 2021, published 2025)

biological target: T1, GCase (Homo sapiens, UniProt P04062); test: activation of GCase in a live cell PFB assay in HELA cells; assay type: cell-based; conditions: EC50 given as range classes
T1 construct: endogenous in cells; host or cells: HeLa cells
T1 sequence (P04062 40-536): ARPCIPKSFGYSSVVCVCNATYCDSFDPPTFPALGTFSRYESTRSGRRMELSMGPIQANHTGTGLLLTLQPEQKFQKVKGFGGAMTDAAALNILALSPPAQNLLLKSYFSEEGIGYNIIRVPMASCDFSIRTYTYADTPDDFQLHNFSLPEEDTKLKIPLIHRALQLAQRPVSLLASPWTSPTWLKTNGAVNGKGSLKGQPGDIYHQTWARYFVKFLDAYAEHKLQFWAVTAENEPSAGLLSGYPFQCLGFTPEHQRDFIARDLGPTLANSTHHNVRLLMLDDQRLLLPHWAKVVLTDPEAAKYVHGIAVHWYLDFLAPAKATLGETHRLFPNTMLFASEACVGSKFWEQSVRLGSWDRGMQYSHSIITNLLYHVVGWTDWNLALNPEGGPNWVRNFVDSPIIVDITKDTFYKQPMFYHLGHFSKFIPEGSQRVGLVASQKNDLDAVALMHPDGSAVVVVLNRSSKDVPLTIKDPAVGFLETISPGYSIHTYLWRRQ
Method: Exemplary compounds were evaluated for activation of GCase in a live cell PFB assay in HELA cells (essentially as described in Ysselstein et al., “LRRK2 kinase activity regulates lysosomal glucocerebrosidase in neurons derived from Parkinson's disease patients” Nature Communications (2019) 10:5570). […] EC50 ranges: A: <10 μM; B: >10-50 μM; C: >50-100 μM; D: >100 μM.

Row | SMILES | EC50 [µM]
1 | FC(F)Cn1ncc2ncc(NC3CCC4(CCN(c5cc(C(F)(F)F)ccn5)C4)C3)nc21 (stereo not drawn) [Cmpd 194] | < 10
2 | O=C(c1ccc(Cl)cc1)N1CC2(CCN(c3cnc4cnn(CC(F)F)c4n3)C2)C1 [Cmpd 378] | > 100
3 | FC(F)(F)c1ncc(N2CC3(CCN(c4cncc(-c5nnc(C(F)(F)F)o5)n4)C3)C2)cn1 [Cmpd 1026] | 50 to 100
4 | O=C1CCC2(CCN(c3cnc4cnn(CC(F)F)c4n3)C2)CN1c1cncc(C(F)(F)F)c1 (stereo not drawn) [Cmpd 796] | < 10
5 | FC(F)Cn1ncc2ncc(N3CCC4(CC3)CN(c3cccc(C(F)(F)F)n3)CCO4)nc21 [Cmpd 208] | 10 to 50
6 | O=C1N(c2ccnc(C(F)(F)F)c2)C(=O)C2(CCN(c3cnc4cnn(CC(F)F)c4n3)CC2)N1Cc1cc(F)cc(F)c1 [Cmpd 817] | < 10
7 | CC1(C)N(c2ccc(C(F)(F)F)nc2)C(=O)CC12CCN(c1cnc3cnn(CC(F)F)c3n1)CC2 [Cmpd 816] | 10 to 50
8 | FC(F)Cn1ncc2ncc(N3CCC4(CN(c5ccnc(OC(F)(F)F)c5)C4)C3)nc21 [Cmpd 411] | 10 to 50
9 | O=S(=O)(c1ccc(Cl)cc1)N1CC2(CCN(c3cnc4cnn(CC(F)F)c4n3)C2)C1 [Cmpd 386] | 10 to 50
10 | CCn1c(=O)n(C2COC2)c2ncc(N3CCC4(CN(c5ccnc(C(F)(F)F)c5)C4)C3)nc21 [Cmpd 982] | 10 to 50
11 | Cn1c(=O)n(C2COC2)c2nc(N3CCC4(CN(c5ccnc(C(F)(F)F)c5)C4)C3)cnc21 [Cmpd 978] | < 10

same assay, conditions: activation of GCase, EC50 ranges

Row | SMILES | EC50 [µM]
12 | O=C1N(c2nc(C(F)(F)F)c(F)cc2F)CCC12CCN(c1cnc3cnn(CC(F)F)c3n1)CC2 [Cmpd 664] | 10 to 50
13 | CC(C)N1C(=O)N(c2ccc(C(F)(F)F)nc2)C(=O)C12CCN(c1cnc3cnn(CC(F)F)c3n1)CC2 [Cmpd 848] | 10 to 50
14 | CCOc1nn(C2COC2)c2nc(N3CCC4(CN(c5ccnc(C(F)(F)F)c5)C4)C3)cnc12 [Cmpd 944] | < 10
15 | Cc1nc(N2CC3(CCN(c4nc5c(cnn5CC(F)F)c(=O)n4CC(C)C)C3)C2)cc(C(F)(F)F)n1 [Cmpd 1112] | < 10
16 | CCn1cc(N2CCC3(CCN(c4cnc5cnn(CC(F)F)c5n4)CC3)C2=O)ccc1=O [Cmpd 846] | 10 to 50
17 | O=C1N(c2cnc(C(F)(F)F)s2)CCC12CCN(c1cnc3cnn(CC(F)F)c3n1)CC2 [Cmpd 841] | < 10
18 | O=C1N(c2cc(C(F)(F)F)ccn2)C(=O)C2(CCN(c3cnc4cnn(CC(F)F)c4n3)CC2)N1Cc1ccc(F)c(F)c1 [Cmpd 719] | < 10
19 | O=C1N(c2cnc3cnn(CC(F)F)c3n2)CCC12CCN(c1ccnc(C(F)(F)F)c1)CC2 [Compound 118, 2-[1-(2,2-difluoroethyl)-1H-pyrazolo[3,4-b]pyrazin-6-yl]-8-[2-(trifluoromethyl)pyridin-4-yl]-2,8-diazaspiro[4.5]decan-1-one] | 10 to 50
20 | O=C1N(c2cnc3cnn(CC(F)F)c3n2)CCC12CCN(c1ccnc(C(F)(F)F)c1)C2 (stereo not drawn) [Cmpd 518] | > 100
21 | Cc1cc(N2CC3(CCN(c4cnc5cnn(C6COC6)c5n4)C3)C2)nc(C(F)(F)F)n1 [Cmpd 454] | 10 to 50
22 | O=C1N(Cc2ccnc(C(F)(F)F)c2)CCC12CCN(c1cnc3cnn(CC(F)F)c3n1)CC2 [Cmpd 357] | < 10
23 | Cc1nc(N2CC3(CCN(c4ncc5c(C)nn(C6COC6)c5n4)C3)C2)cc(C(F)(F)F)n1 [Cmpd 504] | 10 to 50
24 | Cc1nn(C2COC2)c2nc(N3CCC4(CCN(c5cnc(C(F)(F)F)nc5)C4)C3)ncc12 (stereo not drawn) [Cmpd 536] | < 10
25 | FC(F)Cn1ncc2ncc(N3CC[C@]4(CCN(c5cnc(C(F)(F)F)nc5)C4)C3)nc21 [Cmpd 1133] | 10 to 50
26 | CC(c1ccc(C(F)(F)F)cn1)N1CC2(CCN(c3cnc4cnn(CC(F)F)c4n3)CC2)CC1=O (stereo not drawn) [Cmpd 964] | < 10
27 | Cc1nc(N2CC3(CC(=O)N(c4cnc5cnn(CC(F)F)c5n4)C3)C2)cc(C(F)(F)F)n1 [Cmpd 525] | < 10
28 | Cc1cc(N2CC3(CCN(c4ncc5cnn(CC(F)F)c5n4)C3)C2)nc(C)n1 [Cmpd 642] | 10 to 50
29 | FC(F)Cn1ncc2ncc(N3CCC4(CC3)CN(c3ncccc3C(F)(F)F)C4)nc21 [Compound 79, 7-[1-(2,2-difluoroethyl)-1H-pyrazolo[3,4-b]pyrazin-6-yl]-2-[3-(trifluoromethyl)pyridin-2-yl]-2,7-diazaspiro[3.5]nonane] | < 10
30 | FC(F)Cn1ncc2ncc(NC3CCC4(CC3)CN(c3cccnc3C(F)(F)F)C4)nc21 [Compound 109, N-[1-(2,2-difluoroethyl)-1H-pyrazolo[3,4-b]pyrazin-6-yl]-2-[2-(trifluoromethyl)pyridin-3-yl]-2-azaspiro[3.5]nonan-7-amine] | 10 to 50
31 | Cc1nc(N2CC[C@@]3(CCN(c4ncc5c(C)nn(C6COC6)c5n4)C3)C2)cc(C(F)(F)F)n1 [Cmpd 1080] | 10 to 50
32 | Cc1nc(N2CC3(CCN(c4nc5c(cnn5CC(F)F)c(=O)n4CC4CC4)C3)C2)cc(C(F)(F)F)n1 [Cmpd 1113] | 10 to 50
33 | Cc1nn(C2COC2)c2nc(N3CCC4(CC3)CCN(c3ccc(C(F)(F)F)nc3)C4=O)cnc12 [Cmpd 885] | 10 to 50
34 | O=C1N(c2ccncc2C(F)(F)F)CCC12CCN(c1cnc3cnn(CC(F)F)c3n1)CC2 [Cmpd 677] | 10 to 50
35 | FC(F)Cn1ncc2ncc(N3CC4(CCN(c5cnccc5C(F)(F)F)CC4)C3)nc21 [Compound 128, 2-[1-(2,2-difluoroethyl)-1H-pyrazolo[3,4-b]pyrazin-6-yl]-7-[4-(trifluoromethyl)pyridin-3-yl]-2,7-diazaspiro[3.5]nonane] | 10 to 50
36 | Cc1nc(N2CCC3(C2)CN(c2cnc4c(C)nn(C5COC5)c4n2)C3)cc(C(F)(F)F)n1 [Cmpd 556] | 10 to 50

Row | SMILES | EC50 [µM]
37 | O=C1CC2(CCN(c3cnc4cnn(CC(F)F)c4n3)CC2)CN1c1cncc(Cl)c1 [Cmpd 893] | < 10
38 | O=C1CC2(CCN1c1cnc3cnn(CC(F)F)c3n1)CN(c1ccc(C(F)(F)F)cn1)C2 [Cmpd 911] | 10 to 50
39 | O=C1N(c2cc(C(F)(F)F)ccn2)C(=O)C2(CCN(c3cnc4cnn(CC(F)F)c4n3)CC2)N1CC1CC1 [Cmpd 711] | 10 to 50
40 | Cc1nc(N2CC3(CCN(c4ncc5c(n4)n(C4COC4)c(=O)n5C)C3)C2)cc(C(F)(F)F)n1 [Cmpd 899] | < 10
41 | CC(C)N1C(=O)N(c2ccc(C(F)(F)F)nc2)C(=O)C12CCN(c1cnc3cnn(C4COC4)c3n1)CC2 [Cmpd 867] | > 100
42 | FC(F)Cn1ncc2ncc(N3CCC4(CCC4Oc4cccc(C(F)(F)F)n4)CC3)nc21 (stereo not drawn) [Compound 83, 7-[1-(2,2-difluoroethyl)-1H-pyrazolo[3,4-b]pyrazin-6-yl]-1-{[6-(trifluoromethyl)pyridin-2-yl]oxy}-7-azaspiro[3.5]nonane] | 10 to 50
43 | FC(F)(F)c1ncc(N2CCC3(CCN(c4ncc5cnn(C6COC6)c5n4)C3)C2)cn1 (stereo not drawn) [Cmpd 535] | < 10
44 | CCn1c(-c2ccccc2)nc2ncc(N3CCC4(CN(c5ccnc(C(F)(F)F)c5)C4)C3)nc21 [Cmpd 1043] | < 10
45 | FC(F)Cn1ncc2cnc(N3CCC4(CCN(c5ccnc(C(F)(F)F)c5)C4)C3)nc21 (stereo not drawn) [Cmpd 488] | > 100
46 | O=C1N(c2ccnc(C(F)(F)F)c2)CCC12CN(c1cnc3cnn(C4COC4)c3n1)C2 [Cmpd 346] | 50 to 100
47 | Cc1cn(-c2ccccc2)nc1C(=O)N1CCC2(CC1)CCN(c1cc(C(F)(F)F)ccn1)C2=O [Cmpd 270] | 10 to 50
48 | O=C1CC2(CN1c1cc(C(F)(F)F)ccn1)C1CCC2CN(c2cnc3cnn(CC(F)F)c3n2)C1 (stereo not drawn) [Cmpd 724] | 10 to 50
49 | Cc1nc(N2CCC3(C2)CN(c2ncc4cnn(C5COC5)c4n2)C3)cc(C(F)(F)F)n1 [Cmpd 557] | 10 to 50
50 | O=C1N(c2cc(C(F)(F)F)ccn2)C(=O)C2(CCN(c3cnc4cnn(CC(F)F)c4n3)CC2)N1Cc1ccc(F)cc1F [Cmpd 714] | < 10
51 | CC1CC2(CCN(c3cnc4cnn(CC(F)F)c4n3)CC2)CN1c1cc(C(F)(F)F)ccn1 (stereo not drawn) [Cmpd 749] | 10 to 50
52 | Cc1cc(N2CC3(CCN(c4cnc5cnn([C@@H]6CCOC6)c5n4)C3)C2)nc(C(F)(F)F)n1 [Cmpd 1147] | < 10
53 | Cc1cc(N2CCC3(CCN(c4nc5c(cnn5CC(F)F)c(=O)n4C)CC3)C2)nc(C(F)(F)F)n1 [Cmpd 1087] | < 10
54 | Cc1nc(N2CC3(CCN(c4ncc5c(C)nn(CC(F)F)c5n4)CC3)C2)cc(C(F)(F)F)n1 [Cmpd 569] | 10 to 50
55 | Cc1cc(N2CC3(CCN(c4cnc5cnn(CC(C)(F)F)c5n4)C3)C2)nc(C(F)(F)F)n1 [Cmpd 1134] | > 100
56 | CCn1c(N2CCC3(CN(c4nnc(C(F)(F)F)s4)C3)C2)nc2c(cnn2CC(F)F)c1=O [Cmpd 1050] | 10 to 50
57 | Cc1nc(N2CCC3(CCN(c4ncc5c(C)nn(CC(F)F)c5n4)C3)C2)cc(C(F)(F)F)n1 (stereo not drawn) [Cmpd 541] | < 10
58 | Cc1cc(C)c(N2CCC3(CCN(c4cnc5cnn(CC(F)F)c5n4)CC3)C2)nn1 [Cmpd 755] | 10 to 50
59 | Cc1nn(CC(F)F)c2nc(N3CCC4(CC3)CCN(c3cc(C(F)F)ccn3)C4=O)cnc12 [Compound 167, 8-[1-(2,2-difluoroethyl)-3-methyl-1H-pyrazolo[3,4-b]pyrazin-6-yl]-2-[4-(difluoromethyl)pyridin-2-yl]-2,8-diazaspiro[4.5]decan-1-one] | 10 to 50
60 | CC1CN(c2cc(C(F)(F)F)ccn2)CC12CCN(c1cnc3cnn(CC(F)F)c3n1)CC2 (stereo not drawn) [Cmpd 748] | < 10
